# Test results published in US20240092835A1, “NOVEL PEPTIDES CAPABLE OF ALTERING NK CELL ACTIVITY” (Massachusetts Institute of Technology, priority 2022, published 2024).
# Where no end group is shown, it is not given here.
# Assays:
# [1] = tested on: NKG2A−/NKG2C+ NK cells; test: NK cell activation markers in NKG2A-/NKG2C+ NK cells incubated with peptide and K562 expressing HLA-E (activation); format: cell-based, human; settings: NKG2A-/NKG2C+ NK cells, K562/HLA-E, Trial 6
# Outline: (§1)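 Human myelogenous leukemia K562 cells displaying HLA-E carry the test peptides (human or HCMV origin) and are presented to NK cells; surface activation markers are scored by percent positive cells.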
# [2] = tested on: NKG2A−/NKG2C− NK cells; test: NK cell activation markers in control NKG2A-/NKG2C- NK cells incubated with peptide and K562 expressing HLA-E; format: cell-based, human
# Outline: as §1
# [3] = target: CD94/NKG2A (Homo sapiens, UniProt P26715+Q13241); test: Steady-state surface plasmon resonance of peptide-HLA-E complex with CD94/NKG2A; format: binding; settings: for Binding of peptide-HLA-E complexes to CD94/NKG2A normalized to a theoretical Rmax: steady-state SPR
# Chain of CD94/NKG2A (P26715 94-233 limits assumed): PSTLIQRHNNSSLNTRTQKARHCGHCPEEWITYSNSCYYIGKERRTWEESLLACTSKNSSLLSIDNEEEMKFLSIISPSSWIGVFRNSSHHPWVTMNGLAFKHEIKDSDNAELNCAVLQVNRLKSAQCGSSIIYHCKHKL
# Chain of CD94/NKG2A (Q13241 32-179 limits assumed): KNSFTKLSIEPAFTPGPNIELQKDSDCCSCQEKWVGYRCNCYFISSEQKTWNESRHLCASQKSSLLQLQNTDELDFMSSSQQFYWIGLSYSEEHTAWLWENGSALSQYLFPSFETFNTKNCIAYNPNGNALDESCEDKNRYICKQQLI
sequence,measurement,setting,value
"VNPGRSLFL [human5, VNPGRSLFL]",percentage of IFNG+ NK cells,[1],28.6%
same,percentage of TNF+ NK cells,[1],15%
same,percentage CCL3+ NK cells,[2]; Trial 1,33%
same,percentage CD107+ NK cells,[2]; Trial 1,26.5%
same,percentage TNF+ NK cells,[2]; Trial 1,4.11%
same,percentage of IFNG+ NK cells,[2]; Trial 1,14.6%
same,percentage CCL3+ NK cells,[2]; Trial 2,55.5%
same,percentage CD107+ NK cells,[2]; Trial 2,32.5%
same,percentage TNF+ NK cells,[2]; Trial 2,10.4%
same,percentage of IFNG+ NK cells,[2]; Trial 2,26.3%
same,percentage CCL3+ NK cells,[2]; Trial 3,53.4%
same,percentage CD107+ NK cells,[2]; Trial 3,48.1%
same,percentage TNF+ NK cells,[2]; Trial 3,18%
same,percentage of IFNG+ NK cells,[2]; Trial 3,41.4%
same,percentage CCL3+ NK cells,[2]; Trial 4,30.6%
same,percentage CD107+ NK cells,[2]; Trial 4,27.8%
same,percentage TNF+ NK cells,[2]; Trial 4,9.09%
same,percentage of IFNG+ NK cells,[2]; Trial 4,18.7%
same,percentage CCL3+ NK cells,[2]; Trial 5,23.5%
same,percentage CD107+ NK cells,[2]; Trial 5,19%
same,percentage TNF+ NK cells,[2]; Trial 5,6.08%
same,percentage of IFNG+ NK cells,[2]; Trial 5,14.6%
same,percentage CCL3+ NK cells,[2]; Trial 6,22%
same,percentage CD107+ NK cells,[2]; Trial 6,20.1%
same,percentage TNF+ NK cells,[2]; Trial 6,4.34%
same,percentage of IFNG+ NK cells,[2]; Trial 6,10.7%
same,binding of peptide-HLA-E complex to CD94/NKG2A normalized to a fitted Rmax,[3]; CD94/NKG2A concentration 0 μM,−0.002
same,binding of peptide-HLA-E complex to CD94/NKG2A normalized to a fitted Rmax,[3]; CD94/NKG2A concentration 0.1 μM,0.177
same,binding of peptide-HLA-E complex to CD94/NKG2A normalized to a fitted Rmax,[3]; CD94/NKG2A concentration 0.2 μM,0.288
same,binding of peptide-HLA-E complex to CD94/NKG2A normalized to a fitted Rmax,[3]; CD94/NKG2A concentration 0.4 μM,0.434
same,binding of peptide-HLA-E complex to CD94/NKG2A normalized to a fitted Rmax,[3]; CD94/NKG2A concentration 0.8 μM,0.593
same,binding of peptide-HLA-E complex to CD94/NKG2A normalized to a fitted Rmax,[3]; CD94/NKG2A concentration 1.6 μM,0.739
same,binding of peptide-HLA-E complex to CD94/NKG2A normalized to a fitted Rmax,[3]; CD94/NKG2A concentration 3.2 μM,0.863
same,binding of peptide-HLA-E complex to CD94/NKG2A normalized to a fitted Rmax,[3]; CD94/NKG2A concentration 6.4 μM,0.955
same,binding of peptide-HLA-E complex to CD94/NKG2A normalized to a fitted Rmax,[3]; CD94/NKG2A concentration 12.8 μM,1.018
same,binding of peptide-HLA-E complex to CD94/NKG2A normalized to a fitted Rmax,[3]; CD94/NKG2A concentration 25.6 μM,1.059
same,binding of peptide-HLA-E complex to CD94/NKG2A normalized to a fitted Rmax,[3]; CD94/NKG2A concentration 51.2 μM,1.081
same,binding of peptide-HLA-E complex to CD94/NKG2A normalized to a fitted Rmax,[3]; CD94/NKG2A concentration 102.4 μM,1.105
same,Binding of peptide-HLA-E complexes to CD94/NKG2A normalized to a theoretical Rmax,[3]; CD94/NKG2A analyte concentration 0.000 μM,−0.001
same,Binding of peptide-HLA-E complexes to CD94/NKG2A normalized to a theoretical Rmax,[3]; CD94/NKG2A analyte concentration 0.100 μM,0.074
same,Binding of peptide-HLA-E complexes to CD94/NKG2A normalized to a theoretical Rmax,[3]; CD94/NKG2A analyte concentration 0.200 μM,0.120
same,Binding of peptide-HLA-E complexes to CD94/NKG2A normalized to a theoretical Rmax,[3]; CD94/NKG2A analyte concentration 0.400 μM,0.181
same,Binding of peptide-HLA-E complexes to CD94/NKG2A normalized to a theoretical Rmax,[3]; CD94/NKG2A analyte concentration 0.800 μM,0.247
same,Binding of peptide-HLA-E complexes to CD94/NKG2A normalized to a theoretical Rmax,[3]; CD94/NKG2A analyte concentration 1.600 μM,0.308
same,Binding of peptide-HLA-E complexes to CD94/NKG2A normalized to a theoretical Rmax,[3]; CD94/NKG2A analyte concentration 3.200 μM,0.360
same,Binding of peptide-HLA-E complexes to CD94/NKG2A normalized to a theoretical Rmax,[3]; CD94/NKG2A analyte concentration 6.400 μM,0.398
same,Binding of peptide-HLA-E complexes to CD94/NKG2A normalized to a theoretical Rmax,[3]; CD94/NKG2A analyte concentration 12.800 μM,0.425
same,Binding of peptide-HLA-E complexes to CD94/NKG2A normalized to a theoretical Rmax,[3]; CD94/NKG2A analyte concentration 25.600 μM,0.442
same,Binding of peptide-HLA-E complexes to CD94/NKG2A normalized to a theoretical Rmax,[3]; CD94/NKG2A analyte concentration 51.200 μM,0.451
same,Binding of peptide-HLA-E complexes to CD94/NKG2A normalized to a theoretical Rmax,[3]; CD94/NKG2A analyte concentration 102.400 μM,0.461
